Tested on: Sca+Lin- progenitors
Assay: Generation of murine dendritic cells from bone marrow Sca+ progenitors, cell surface phenotype (Example 13)
Type: cell-based, C57BL/6 mice
Settings: 10 μM
Excerpt: Mouse bone marrow from inbred C57BL/6 mice are obtained from Clonetics. Hematopoietic Sca+Lin− progenitors are enriched using SpinSep murine progenitor enrichment cocktail (StemCell Technologies) and cultured in Iscove's MDM with BUI 95000 (StemCell Technologies) in the presence of murine growth factors SCF, Flt3L, GM-CSF and M-CSF for 9 days, to promote expansion of Sca+ cells and a DC precursor phenotype and then in the presence of GM-CSF and TNF-α for 3 additional days to drive the cells to an immature DC phenotype. Enriched Sca+Lin− cells are cultured in the presence of DMSO (0.1%), SelCIDs™ at 10 μM or all-trans retinoic acid (ATRA) (ICN Biomedicals) at 10 μM from day 0. Compounds are added to cells at day 0 and day 9.
Analysis of Murine cell surface phenotype: murine cells are processed for double staining (14 min at RT) at day 9 and day 12; using FITC and PE conjugated mAbs. Antibodies used are from BD Pharmingen: Sca (PE), CD11b (FITC), Gr-1 ([…]), CD86 (PE), CD14 (PE), CD80 (PE), I-Ab (PE), CD40 (PE) and CD32.1/16.1 (FITC) from Miltenyi. Fluorescence analysis is performed on a FACScan flow cytometer ([…]) after acquisition of 10,000 events.

CC1=C(/C=C/C(C)=C/C=C/C(C)=C/C(=O)O)C(C)(C)CCC1 [ATRA, all-trans retinoic acid]
CD80, I-A^b and Sca+ expression (by day 9): marked downregulation
expression of CD40 and CD80 (by day 12): marked downregulation
